Key:
[1] = tested on: GM 15850 (lymphoblastoid cells line) cells; experiment: In-cell deacetylase inhibition assay (DAC assay); type: cell-based; settings: Homo sapiens, GM15850; GM 15850 cells, 4 h incubation; read-out: 850 DAC (in-cell deacetylase inhibition IC50)
Experimental: Compound dilutions were made in 100% DMSO followed by parallel dilution in media with 2% DMSO. 10 μl of the compound dilutions were added to the cells to achieve the desired concentrations. The final concentration of DMSO in each well was 0.2%. The cells were incubated for 4 h at 37° C. with 5% CO2. After incubation, the cells were centrifuged down and the supernatant was removed. […] The reaction was stopped after 30 min incubation by addition of 50 μL developer (6 mg/mL trypsin in HDAC assay buffer). The reaction was allowed to develop for 30 min at room temperature and the fluorescence signal was detected using a fluorometer (Spectramax M2, Molecular Devices, Sunnyvale, Calif.) with excitation and emission wavelengths of 360 nm and 470 nm respectively. The data was fitted to a sigmoidal dose response equation with variable slope in GraphPad Prism 5.0 (GraphPad Software, La Jolla, Calif.) to determine IC50. Bottom and top of the curve were fixed to the average fluorescence response of control wells with no cells and cells but no compound respectively.

[2] = Brain penetration studies;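 further: compound levels in brain and plasma quantified by LC/MS/MS, sampled from pre-dose up to 4 h after dosing, three mice per dose and time point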; type: in vivo; settings: C57/BL6/J, mouse, brain and plasma; mice, s.c. 5 or 50 mg/kg or i.v. 5 mg/kg; read-out: BPR (brain/plasma ratio, Cmax(brain)/Cmax(plasma))
Experimental: Test compounds were prepared at either 0.5 mg/ml or 5 mg/ml in 30% hydroxypropyl-β-cyclodextrin, 100 mM sodium acetate pH 5.5, 5% DMSO. C57/BL6/J mice were dosed s.c. at 5 mg/kg or 50 mg/kg, or i.v. at 5 mg/kg. Animals were euthanized at pre-dose, 5, 15, 30 min, 1, 2 and 4 hours post-dose and plasma and brain obtained. Three animals per dose per time points were used. The levels of compound in the plasma and brain were determined by standard LC/MS/MS methods. Brain/plasma ratio (BPR) was calculated as the ratio of the Cmax(brain)/Cmax(plasma).

HCT116 cells = experiment: Cell proliferation assay; type: cell-based; settings: Homo sapiens, HCT-116, 72 h, read-out: Hct-116 (anti-proliferation IC50)
Experimental: HCT116 cells (5000 cells/well) in 80 μL McCoy's 5A medium containing 10% v/v FBS, 1% v/v penicillin/streptomycin and 1% v/v L-glutamine were incubated in 96-well plates with compounds at various concentrations for 72 h at 37° C. in a 5% CO2 atmosphere. The compound dilutions were made in 100% DMSO followed by parallel dilutions in media. The final concentration of DMSO in each well was 0.05%. After 72 h, 20 μL of Cell titer 96 aqueous one solution (Promega Corporation, Madison, Wis.) were added to the cells and the plate was incubated at 37° C. for another 4 h. The absorbance at 490 nm was then recorded on a 96-well plate reader (Spectramax M2, Molecular Devices, Sunnyvale, Calif.). Data analysis was performed in Microsoft Excel (Microsoft Corp, Redmond, Wash.).

HDAC1 = target: T1, HDAC1 (Homo sapiens, UniProt Q13547); experiment: HDAC activity inhibition assay, HDAC1; type: biochemical; settings: 2 hours pre-incubation, Fluor-de-Lys substrate 10 μM
T1 construct: purchased BPS Bioscience 50051
Experimental: The HDAC activity inhibition assay was performed as follows to determine the ability of a test compound to inhibit HDAC enzymatic activity. […] Following pre-incubation, Fluor-de-Lys™ substrate (Enzo Life Sciences, Plymouth Meeting, Pa., BML-KI104-0050) was added to a final concentration of 10 μM and plates were further incubated for 30 minutes at room temperature. […] IC50 values were calculated by using a sigmoidal dose-response (variable slope) equation in GraphPad Prism® 5 for Windows (GraphPad Software, La Jolla, Calif.).

C57BL/6J male mice = experiment: Long term memory for object recognition; type: in vivo; settings: s.c. 3, 10, 30 mg/kg
Experimental: C57BL/6J male mice were handled 1-2 min for 5 days and were habituated to the experimental apparatus 5 min a day for 4 consecutive days in the absence of objects. […] 24-h later mice were tested for memory retention (5 min) using the object recognition memory task (ORM), in which a familiar object was replaced with a novel one. All training and testing trials were videotaped and analyzed by individuals blind to the treatment condition and the genotype of subjects. A mouse was scored as exploring an object when its head was oriented toward the object within a distance of 1 cm or when the nose was touching the object. The relative exploration time was recorded and expressed by a discrimination index [DI=(tnovel−tfamiliar)/(tnovel+tfamiliar)×100].

T1 sequence (Q13547 whole entry): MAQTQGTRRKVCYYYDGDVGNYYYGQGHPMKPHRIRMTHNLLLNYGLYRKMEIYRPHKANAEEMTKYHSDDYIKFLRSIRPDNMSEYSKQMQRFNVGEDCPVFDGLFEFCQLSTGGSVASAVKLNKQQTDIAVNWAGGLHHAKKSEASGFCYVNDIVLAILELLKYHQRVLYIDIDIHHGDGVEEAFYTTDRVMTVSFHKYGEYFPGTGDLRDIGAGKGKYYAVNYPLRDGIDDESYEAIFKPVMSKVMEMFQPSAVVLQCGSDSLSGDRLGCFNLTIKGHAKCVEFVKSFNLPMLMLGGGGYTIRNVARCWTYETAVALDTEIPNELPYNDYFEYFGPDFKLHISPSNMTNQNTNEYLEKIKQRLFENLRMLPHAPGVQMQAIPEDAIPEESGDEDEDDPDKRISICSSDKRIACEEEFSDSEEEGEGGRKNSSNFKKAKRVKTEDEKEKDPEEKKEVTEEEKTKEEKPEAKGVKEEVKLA

IC50 [1] [µM]	Kp [2]	IC50 (HCT116 cells) [µM]	SMILES	IC50 (HDAC1) [µM]	dose dependence of the effect on long-term memory (C57BL/6J male mice)
> 20	0.5 to 1		Cc1nc(/C=C/C(=O)Nc2ccccc2N)cs1 [A1]		
10 to 20	0.5 to 1	> 20	Cn1cc(/C=C/C(=O)Nc2ccccc2N)cn1 [A2]		
> 20			Cc1ncc(/C=C/C(=O)Nc2ccccc2N)s1 [A3]		
	0.2 to 0.5		Cc1cc(/C=C/C(=O)Nc2ccccc2N)on1 [A5]		
> 20	0.1 to 0.2	10 to 20	Nc1ccccc1NC(=O)/C=C/c1cnc2ccccn12 [A6, (E)-N-(2-aminophenyl)-3-(imidazo[1,2-a]pyridin-3-yl)acrylamide]		
> 20	0.5 to 1		Cn1ccc(/C=C/C(=O)Nc2ccccc2N)n1 [A7]		
10 to 20	0.5 to 1		Nc1ccccc1NC(=O)/C=C/c1cc2ccccn2n1 [A8]		
> 20			Nc1ccccc1NC(=O)/C=C/c1cn2ccccc2n1 [A9]		
10 to 20	0.2 to 0.5		Nc1ccccc1NC(=O)/C=C/c1cn2ccnc2s1 [A10]		
	> 1		Nc1ccccc1NC(=O)/C=C/c1cnn(-c2ccccc2)c1 [A11]		
> 20			Cn1cnc(/C=C/C(=O)Nc2ccccc2N)c1 [A12]		
10 to 20			Nc1ccccc1NC(=O)/C=C/c1cnn(CC2CC2)c1 [B1]		
5 to 10			Nc1ccccc1NC(=O)/C=C/c1cnn(C/C=C/c2ccc(F)cc2)c1 [B2]		
1 to 5	0.2 to 0.5		Nc1ccccc1NC(=O)/C=C/c1cnn(CCOc2cc(F)cc(F)c2)c1 [B3, (E)-N-(2-aminophenyl)-3-(1-(2-(3,5-difluorophenoxy)ethyl)-1H-pyrazol-4-yl)acrylamide]		
10 to 20	0.2 to 0.5		Nc1ccccc1NC(=O)/C=C/c1cnn(CCOc2ccc(C(F)(F)F)cc2)c1 [B4]		
5 to 10	0.2 to 0.5		Nc1ccccc1NC(=O)/C=C/c1cnn(CCOc2cc(F)cc(Cl)c2)c1 [B5, (E)-N-(2-aminophenyl)-3-(1-(2-(3-chloro-5-fluorophenoxy)ethyl)-1H-pyrazol-4-yl)acrylamide]		
5 to 10			Nc1ccccc1NC(=O)/C=C/c1cnn(CCOc2ccc(F)cc2)c1 [B6]		
> 20	0.5 to 1		CCn1cc(/C=C/C(=O)Nc2ccccc2N)cn1 [C1]		
			Cn1cc(/C=C/C(=O)Nc2ccc(F)cc2N)cn1 [C2]	> 20	
> 20			Cn1cc(/C=C/C(=O)Nc2cc(F)ccc2N)cn1 [C3]		
> 20	0.2 to 0.5	> 20	Nc1cc(F)ccc1NC(=O)/C=C/c1cnn(C/C=C/c2ccccc2)c1 [D2, (E)-N-(2-amino-4-fluorophenyl)-3-(1-cinnamyl-1H-pyrazol-4-yl)acrylamide]		no effect of dose
1 to 5	0.2 to 0.5	< 5	Nc1ccccc1NC(=O)/C=C/c1cnn(CCOc2ccccc2)c1 [D3, (E)-N-(2-aminophenyl)-3-(1-(2-phenoxyethyl)-1H-pyrazol-4-yl)acrylamide]		

IC50 [1] [µM]	Kp [2]	IC50 (HCT116 cells) [µM]	SMILES	IC50 (HDAC1) [µM]	dose dependence of the effect on long-term memory (C57BL/6J male mice)
5 to 10	0.2 to 0.5	> 20	Nc1ccccc1NC(=O)/C=C/c1cnn(Cc2ccccc2)c1 [D4]		
5 to 10	0.1 to 0.2	> 20	Nc1ccccc1NC(=O)/C=C/c1cnn(Cc2ccc(F)cc2)c1 [D5]		
10 to 20	< 0.1	> 20	Cc1cccc(Cn2cc(/C=C/C(=O)Nc3ccccc3N)cn2)n1 [D6]		
5 to 10	0.5 to 1	< 5	Nc1ccccc1NC(=O)/C=C/c1cnn(CCc2ccccc2)c1 [D7]		
1 to 5	0.2 to 0.5	< 5	Nc1ccccc1NC(=O)/C=C/c1cnn(CCCc2ccccc2)c1 [D8]		
1 to 5	0.5 to 1	5 to 10	Nc1ccccc1NC(=O)/C=C/c1cnn(CCCCc2ccccc2)c1 [D9]		
5 to 10	0.5 to 1	> 20	Nc1ccccc1NC(=O)/C=C/c1cnn(CC(F)(F)c2ccccc2)c1 [D10]		
1 to 5	> 1		Nc1ccccc1NC(=O)/C=C/c1cnn(CC/C=C/c2ccccc2)c1 [D11]		
1 to 5	0.5 to 1		CN(CCCn1cc(/C=C/C(=O)Nc2ccccc2N)cn1)c1ccccc1 [D12]		
1 to 5	< 0.1		Nc1ccccc1NC(=O)/C=C/c1cnn(CCc2c[nH]c3ccccc23)c1 [D13]		
5 to 10			Nc1ccccc1NC(=O)/C=C/c1cnn(CCOCc2ccccc2)c1 [D14]		
1 to 5			Nc1ccccc1NC(=O)/C=C/c1cnn(CCCOc2ccccc2)c1 [D15]		
10 to 20			Nc1cc(F)ccc1NC(=O)/C=C/c1cnn(CCOc2ccccc2)c1 [D16]		
> 20			CCOCc1cn2cc(/C=C/C(=O)Nc3ccccc3N)sc2n1 [E1, (E)-N-(2-aminophenyl)-3-(6-(ethoxymethyl)imidazo[2,1-b]thiazol-2-yl)acrylamide]		
10 to 20	> 1	> 20	Nc1ccccc1NC(=O)/C=C/c1csc(CC=Cc2ccccc2)n1 [E2, (E)-N-(2-aminophenyl)-3-(2-cinnamylthiazol-4-yl)acrylamide]		
> 20	< 0.1		Nc1ccccc1NC(=O)c1ccc(C=C2CCN(C(=O)OCc3ccccc3)CC2)cc1 [F1]		
10 to 20	> 1	< 5	Nc1ccccc1NC(=O)c1ccc(C=C2CCN(Cc3cccnc3)CC2)cc1 [F2]		
1 to 5	0.2 to 0.5	< 5	Nc1ccccc1NC(=O)c1ccc(C=C2CN(Cc3ccc4cc[nH]c4c3)C2)cc1 [F3]		
1 to 5	0.5 to 1	< 5	Nc1ccccc1NC(=O)c1ccc(CC2CN(Cc3ccc4cc[nH]c4c3)C2)cc1 [F4]		
5 to 10			Nc1ccccc1NC(=O)c1ccc(C=C2CN(Cc3ccc4cc[nH]c4c3)C2)c(Cl)c1 [F5, 4-((1-((1H-Indol-6-yl)methyl)azetidin-3-ylidene)methyl)-N-(2-aminophenyl)-3-chlorobenzamide]		
10 to 20			Nc1ccccc1NC(=O)c1ccc(C=C2CN(Cc3cccnc3)C2)c(Cl)c1 [F6]		
			Cc1ccc(C(=O)NCCCCCC(=O)Nc2ccc(F)cc2N)cc1 [RGFP 136, reference compound]		Dose dependent effects

SMILES	IC50 [1] [µM]	Kp [2]	IC50 (HCT116 cells) [µM]	IC50 (HDAC1) [µM]	dose dependence of the effect on long-term memory (C57BL/6J male mice)
CN1CCC(Cn2cc(/C=C/C(=O)Nc3ccccc3N)cn2)CC1 [G1, (E)-N-(2-aminophenyl)-3-(1-((1-methylpiperidin-4-yl)methyl)-1H-pyrazol-4-yl)acrylamide]			> 20		
Cc1nn(C/C=C/c2ccccc2)c(C)c1/C=C/C(=O)Nc1ccccc1N [G2, (E)-N-(2-aminophenyl)-3-(1-cinnamyl-3,5-dimethyl-1H-pyrazol-4-yl)acrylamide]			> 20		
